Entries after “also recorded” stand apart in the source; their conditions may differ.
Experiments:
P. falciparum Dd2 = experiment: Stage-specific activity assay (Giemsa smears, YOYO-1 flow cytometry); type: cell-based, Plasmodium falciparum; settings: synchronized Dd2, compound at 3X EC50 added at 6, 18, 30, 42 hpi
Protocol: P. falciparum Dd2 cell line was synchronized using a combination of 5% sorbitol and magnetic column separation as described ([Roberts et al., 2016]). Cultures at 2% parasitemia and 2% hematocrit were added to microtiter plate wells and measurements began 6 h post-invasion (6 hpi). Hit compounds were added at 3X EC50 concentration at specified time points. Controls are DHA (3X EC50) and untreated cultures. Giemsa-stained thin smears were made for each time point and an aliquot of the culture was fixed for flow cytometric analysis using 0.04% glutaraldehyde in PBS. After fixing and aspirating, cells were permeabilized with 0.25% Triton-100 followed by treatment with RNase (0.05 mg/ml) for 3 h. Next, YOYO 1 (10.24 µM) fluorescent dye was added and samples were analyzed ([Bouillon et al., 2013]) using Beckman Coulter (Indianapolis, IN) CytoFlex S flowcytometer.

Pf Dd2 = experiment: Rate of killing determination; type: cell-based, Plasmodium falciparum; settings: synchronized Dd2, exposure 6 or 12 h, parasitemia tracked for 6 days
Protocol: Pf Dd2 culture was synchronized as described ([Roberts et al., 2016]), plated into 24 well plates at 2% parasitemia and 2% hematocrit at 6 hpi. […] Each well was exposed to the inhibitor for either 6 or 12 h using dihydroartemisinin (DHA) (25 µM) and untreated culture as controls. After washing the compounds off, the media was changed twice a day. The parasitemia was tracked for 6 days after addition of compounds. Thin smears were stained with Giemsa, and parasitemia was counted using microscope.

[1] = test system: human hepatoma cell line HepG2; experiment: MTS based cytotoxicity assay (counter-screen for selectivity); type: cell-based; settings: 48 h
Protocol: Selectivity was determined by counter-screening against human hepatoma cell line HepG2 in a MTS (3-(4,5-Dimethylthiazol-2-yl)-5-(3-carboxymethoxyphenyl)-2-(4-sulfophenyl)-2H-tetrazolium) based cytotoxicity assay (CellTiter 96® Aqueous One, Promega, Madison, WI) ([Riss et al., 2004]). Briefly, microtiter plates were seeded with 1,500 cells per well in a 384 well plate and incubated for 24 h at 37°C in 5% CO2/95% air atmosphere. The next day, compounds were added at seven different serially diluted concentrations starting at 25 µM d incubated for additional 48 h at stated conditions. MTS solution was next added to each well, incubated for additional 3 h at 37°C, and absorbance was read at 490 nm using BioTek Synergy neo 2 plate reader. Untreated cells served as control. Curve fitting was performed using GraphPad Prism and EC50 value was determined.

[2] = test system: multidrug resistant P. falciparum strain Dd2; experiment: SYBR Green I Plasmodium growth inhibition assay (fixed concentration screen and EC50); type: cell-based, Plasmodium falciparum; settings: Plasmodium falciparum; Pf Dd2, 1 µM, 72 h; read-out: Inhibition One-point (%)
Protocol: P. falciparum cultures were maintained under standard culture conditions in RPMI 1640 medium supplemented with 25 mM HEPES, pH 7.4, 26 mM NaHCO3, 2% dextrose, 15 mg/L hypoxanthine, 25 mg/L gentamycin, and 0.5% Albumax II maintained at 37°C in 5% CO2 and 95% air. Initially, a fixed concentration phenotypic screening was performed against multidrug resistant P. falciparum strain Dd2 (resistant to chloroquine, pyrimethamine, and mefloquine) using a SYBR Green I assay ([Johnson et al., 2007]; [Vossen et al., 2010]). An EVO-150 robotic liquid handler (Tecan, Morrisville, NC) was used to aliquot compounds at a final concentration of 1 µM followed by addition of culture to 96-well plates (Greiner, Monroe, NC) at 1% parasitemia, 2% hematocrit. Plates were incubated for 72 h at 37°C in a humidified atmosphere 5% CO2/95% air prior to freezing. Plates were subsequently thawed and 1X SYBR Green I was added with lysis buffer (20 mM Tris-HCl, 0.08% saponin, 5 mM EDTA, 0.8% Triton X-100). After incubation at room temperature in dark for 1 h, the fluorescent emission was measured at excition and emission wavelengths of 485 nm and 530 nm, respectively, using a BioTek Synergy neo2 (Winooski, VT) plate reader. […] Curve fitting was performed using GraphPad Prism and EC50 value was determined for each compound.

Pf (DD2) = experiment: Validation dataset: previously performed HTS at University of Central Florida, Chakrabarti Laboratory; type: cell-based, Plasmodium falciparum; settings: class label
Protocol: The validation dataset consists of the results from previously performed HTS in University of Central Florida at the Chakrabarti Laboratory, consisting of natural-products, kinase inhibitors from commercial vendors Asinex (Winston-Salem, NC)and ChemDiv (San Diego, CA) libraries. This dataset contains 4,497 molecules and their inhibition property. […] Using this external validation dataset, the realistic capabilities of the model are evaluated in the validation process. The raw data supporting the conclusions of this manuscript will be made available by the authors, without any restriction, to any qualified researcher (Supplementary Material 4).

| SMILES | Stage specific activity (P. falciparum Dd2) | Rate of killing (Pf Dd2) | EC50 [1] [µM] | inhibition at 1 µM [2] [%] | DD2 (Pf (DD2)) |
| --- | --- | --- | --- | --- | --- |
| CCC1C2=NC(Cc3ccccc3)=C(O2)N(Cc2ccccc2)Cc2cn(nn2)CCCCN1Cc1ccccc1OCCN(C)C (stereo not drawn) [DC-9237, CCC1N(CC2=CC=CC=C2OCCN(C)C)CCCCN2C=C(CN(CC3=CC=CC=C3)C3=C(CC4=CC=CC=C4)N=C1O3)N=N2] | inhibits all asexual stages of Plasmodium falciparum; also recorded: inhibits all asexual blood stages of Dd2 including the early ring stage | fast-acting; also recorded: inhibited growth at all asexual stages after 6 h of exposure and parasite population did not resume growth even after 6 days | 17 | 95 | – |
| CC(C)C[C@@H](N)C(=O)N1CCC2(CCCCCc3ccccc3OCCN(C)C2=O)CC1 [DC-9236, CC(C)C[C@@H](N)C(=O)N1CCC2(CC1)CCCCCC1=C(OCCN(C)C2=O)C=CC=C1] | active in late Troph and early Schizont; also recorded: inhibits primarily the mature schizonts | higher elimination in the second life cycle; also recorded: inhibition in the second developmental cycle of Pf causing delayed death | 6.5 | 98 | – |
| O=C1NC(=S)S/C1=C\c1ccc(O)cc1 [O=C1NC(=S)S/C1=C\c1ccc(O)cc1] | – | – | – | – | 0 (zero if otherwise) |

Source: publication PMC6974622, “DeepMalaria: Artificial Intelligence Driven Discovery of Potent Antiplasmodials” (Frontiers in Pharmacology, 2020)
